Tests used:
[1] = Applicant's finding on therapeutic activity of NAD+ versus NADH for the disclosed uses
Excerpt: As such, Applicant believes NAD+ alone is responsible for the activities disclosed herein. […] Applicant therefore defines NADH as having a negative net NAD+ value.

[2] = tested on: hair growth (follicular stimulation; SIRT1 enzyme); assay: Database trial: weekly scalp micro injections of SIRT1 activator (NAD+), hair growth followed by trichoscan; type: in vivo, human
Description: All six patients underwent weekly micro injections to the subcutaneous fatty layer of the affected layer of the scalp using 4 ml of a SIRT1 Activator (NAD+) over a 24 week period using a commercially available Biophymed CE certified U225 mesotherapy device. The SIRT 1 activator was specially prepared from our written protocol.
Patients were followed for safety and tolerability as well as for monitoring differences in hair growth. In order to track progress over time, we employed global photography, and a 60 second patient observational assessment tool based on a standardized 60 second hair count protocol, haircount and trichoscan analysis (Fotofinder); Trichoscan analysis allows us to quantitatively track the following parameters: hair count, hair density, anagen/telogen rates, along with cumulative hair thickness Patients were asked to return to the clinic at 6 weeks, 12 weeks after the intervention.

[3] = cited from earlier work

Structure (SMILES) | therapeutic effectiveness for the uses disclosed [1] | average increase in hair count ([2]; 12 week trichoscan parameters, six patients, weekly micro injections of 4 ml to subcutaneous fatty layer of scalp) [%] | preliminary results of hair growth trial ([2]; overall conclusion of the trial) | stability of solutions ([3]; 4° C. and neutral pH) | stability of solutions in acids or alkalis ([3]; acids or alkalis)
NC(=O)C1=CN([C@@H]2O[C@H](COP(=O)(O)OP(=O)(O)OC[C@H]3O[C@@H](n4cnc5c(N)ncnc54)[C@H](O)[C@@H]3O)[C@@H](O)[C@H]2O)C=CC1 [NADH, reference compound] | entirely inactive | – | – | – | –
NC(=O)c1ccc[n+]([C@@H]2O[C@H](COP(=O)([O-])OP(=O)(O)OC[C@H]3O[C@@H](n4cnc5c(N)ncnc54)[C@H](O)[C@@H]3O)[C@@H](O)[C@H]2O)c1 [NAD+, Nicotinamide adenine dinucleotide] | therapeutically effective | 21 | statistically significant and positive | stable for about a week | decompose rapidly
